Consider one compound from US20060030054A1, “Fluorescent probe” (Daiichi Pure Chemicclas Co., LTD., of Tokyo, Japan, priority 2002, published 2006).

Series [1] in a line: Complex formation constant from fluorescence intensity change on addition of potassium. It counts as binding. The following applies: 0.2 M Tris-hydrochloride buffer pH 7.5, potassium chloride, DMF 0.1%, compound 3 μM; read-out: Complex formation constant K^+. As for the experimental part: (§1) Fluorescence intensity changes of the compound obtained in Example 5 and the compound obtained in Example 7 above were measured with addition of sodium, magnesium, and potassium. Measurements were conducted in 0.2 M Tris-perchlorate buffers at pH 7.5 containing various concentrations of sodium perchlorate and magnesium perchlorate using dimethylformamide (0.1%) as co-solvent when sodium and magnesium were added, and in 0.2 M Tris-hydrochloride buffers at pH 7.5 containing various concentrations of potassium chloride using dimethylformamide (0.1%) as co-solvent when potassium was added. The final concentrations of the compounds obtained in Example 5 and Example 7 were adjusted to be 3 μM. The compound obtained in Example 5 was measured at excitation wavelength of 492 nm and fluorescence wavelength of 513 nm and the compound obtained in Example 7 was measured at excitation wavelength of 504 nm and fluorescence wavelength of […].

Series [2] can be described thus: Complex formation constant from fluorescence intensity change on addition of sodium. The following applies: 0.2 M Tris-perchlorate buffer pH 7.5, sodium perchlorate, DMF 0.1%, compound 3 μM; read-out: Complex formation constant Na^+. The class given is binding. Here is the method:
as §1

Series [3] in a line: Complex formation constant from fluorescence intensity change on addition of magnesium. The class given is binding. The following applies: 0.2 M Tris-perchlorate buffer pH 7.5, magnesium perchlorate, DMF 0.1%, compound 3 μM. As for the experimental part:
as §1

Series [4] in a line: Fluorescence intensity change against pH change under co-presence of sodium. The following applies: 0.2 M Tris-phosphate buffers at various pH, 500 mM sodium perchlorate, DMF 0.1%. It counts as physicochemical. As for the experimental part: Fluorescence intensity changes of the compound obtained in Example 7 and Sodium Green tetra(tetramethylammonium)salt (Molecular Probes Inc.) against pH change were studied under co-presence of sodium. Measurements were conducted in 0.2 M Tris-phosphate buffers at various pH containing 500 mM of sodium perchlorate using dimethylformamide (0.1%) as a co-solvent. The compound obtained in Example 7 was measured at excitation wavelength of 504 nm and fluorescence wavelength of 522 nm and Sodium Green tetra(tetramethylammonium)salt was measured at excitation wavelength of 508 nm and fluorescence wavelength of 533 nm.

The structures appear in SMILES notation.

In the case of `Cc1cc2c(cc1-c1c3cc(Cl)c(=O)cc-3oc3cc(O)c(Cl)cc13)OCCOCCOCCOCCO2` [Example 7], the Kd in series [1] was determined as 410 µM; in series [2] it was 320 µM. For the same compound, the “Complex formation constant Mg^+” value in series [3] is on record as “Unmeasurable”. In addition, the “Susceptibility of fluorescence intensity to pH change compared with Sodium Green tetra(tetramethylammonium)salt” value in series [4] was “less susceptible to a pH change”.
